Our source for the inhibition, Ki and IC50 values is US7045528B2, “Benzofused heterozryl amide derivatives of thienopyridines useful as therapeutic agents, pharmaceutical compositions including the same, and methods for their use” (Agouron Pharmaceuticals, Inc., priority 2002, dated 2006).

Usually Ki stands for a dissociation constant, usually derived from enzyme kinetics or from competition with a known ligand. In general, IC50 refers to the midpoint of a concentration-inhibition curve.

Assay [1] addresses T1, unphosphorylated VEGF-R2Δ50 (FLVK) (Homo sapiens, UniProt P35968, DEL940-989/E990V).
T1 construct: VEGF-R2Δ50 contains residues 806–939 and 990–1171; made in house; host or cells: baculovirus/insect cell system
The experiment in a line: VEGF-R2 coupled spectrophotometric assay, unphosphorylated VEGF-R2Δ50 (FLVK). It counts as biochemical. To be noted: unphosphorylated VEGF-R2Δ50; for inhibition at 0.05 µM: 50 nM compound, read-out: FLVK (% inh @ 50 nM). The essentials: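 Baculovirus-expressed human VEGF-R2Δ50 (kinase insert partly deleted, E990V), unphosphorylated form; ADP production coupled via PK/LDH to NADH oxidation, read at 340 nm. 20 mM poly(E4Y1), 3 mM ATP, 60 mM MgCl2, 2 mM MnCl2, 200 mM HEPES pH 7.5; 5–40 nM enzyme. Ki from Morrison tight-binding fit.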

A further assay has as its system Huvec. Briefly: bFGF Huvec proliferation. It counts as cell-based, human. The note with it: Homo sapiens, HUVEC.
Assay [2] concerns human umbilical vein endothelial cells (HUVEC). Briefly: HUVEC+VEGF proliferation assay. To be noted: Homo sapiens, HUVEC; VEGF 6 ng/mL, 72 h, MTT. It counts as cell-based. The method, then: HUVEC+VEGF Proliferation Assay
This assay determines the ability of a test compound to inhibit the growth factor-stimulated proliferation of human umbilical vein endothelial cells (“HUVEC”). HUVEC cells (passage 3–4; Clonetics, Corp.) were thawed into EGM2 culture medium (Clonetics Corp) in T75 flasks. Fresh EGM2 medium was added to the flasks 24 hours later. Four or five days later, cells were exposed to another culture medium (F12K medium supplemented with 10% fetal bovine serum (FBS), 60 μg/mL endothelial cell growth supplement (ECGS), and 0.1 mg/mL heparin). Exponentially-growing HUVEC cells were used in experiments thereafter. Ten to twelve thousand HUVEC cells were plated in 96-well dishes in 100 μl of rich, culture medium (described above). The cells were allowed to attach for 24 hours in this medium. The medium was then removed by aspiration and 105 μl of starvation media (F12K+1% FBS) was added to each well. After 24 hours, 15 μl of test agent dissolved in 1% DMSO in starvation medium or this vehicle alone was added into each treatment well; the final DMSO concentration was 0.1%. One hour later, 30 μl of VEGF (30 ng/mL) in starvation media was added to all wells except those containing untreated controls; the final VEGF concentration was 6 ng/mL. Cellular proliferation was quantified 72 hours later by MTT dye reduction, at which time cells were exposed for 4 hours MTT (Promega Corp.). Dye reduction was stopped by addition of a stop solution (Promega Corp.) and absorbance at 595 nm was determined on a 96-well spectrophotometer plate reader.

The target in a further assay is T2, PDGFRβ (Homo sapiens, UniProt P09619).
T2 construct: expressed in transfected cells; host or cells: porcine aorta endothelial (PAE)-PDGFRβ cells
T2 sequence (P09619 33-1106): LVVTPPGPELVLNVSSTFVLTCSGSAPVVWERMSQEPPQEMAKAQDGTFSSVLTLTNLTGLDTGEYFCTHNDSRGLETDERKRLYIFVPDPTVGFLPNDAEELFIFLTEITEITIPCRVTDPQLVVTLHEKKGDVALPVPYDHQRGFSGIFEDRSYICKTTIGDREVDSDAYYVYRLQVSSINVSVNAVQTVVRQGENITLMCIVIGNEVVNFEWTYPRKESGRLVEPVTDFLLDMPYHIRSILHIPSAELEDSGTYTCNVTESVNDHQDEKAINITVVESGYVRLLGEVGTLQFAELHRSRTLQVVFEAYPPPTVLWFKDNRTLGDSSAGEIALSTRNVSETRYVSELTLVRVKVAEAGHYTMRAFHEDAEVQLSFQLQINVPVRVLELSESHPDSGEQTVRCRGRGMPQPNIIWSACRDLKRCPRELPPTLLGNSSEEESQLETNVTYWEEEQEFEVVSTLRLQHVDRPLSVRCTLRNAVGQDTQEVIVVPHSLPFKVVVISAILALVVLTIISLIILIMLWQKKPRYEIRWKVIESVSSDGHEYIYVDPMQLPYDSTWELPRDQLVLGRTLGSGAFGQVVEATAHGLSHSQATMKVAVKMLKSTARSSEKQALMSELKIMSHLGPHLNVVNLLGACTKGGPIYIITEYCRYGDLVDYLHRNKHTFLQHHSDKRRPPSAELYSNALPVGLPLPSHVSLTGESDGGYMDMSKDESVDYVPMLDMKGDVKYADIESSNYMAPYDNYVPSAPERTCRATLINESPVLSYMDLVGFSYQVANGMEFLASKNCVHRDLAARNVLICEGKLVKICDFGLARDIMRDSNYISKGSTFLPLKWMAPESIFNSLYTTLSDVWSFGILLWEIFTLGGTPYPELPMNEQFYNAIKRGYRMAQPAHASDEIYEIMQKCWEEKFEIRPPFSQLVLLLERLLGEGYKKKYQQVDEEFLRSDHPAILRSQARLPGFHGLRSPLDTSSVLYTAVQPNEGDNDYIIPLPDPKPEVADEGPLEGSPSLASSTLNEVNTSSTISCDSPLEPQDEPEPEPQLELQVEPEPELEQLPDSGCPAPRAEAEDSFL
Briefly: PAE-PDGFRβ phosphorylation in PAE-PDGFRB cells assay. It counts as cell-based. To be noted: PAE cells overexpressing human PDGFRβ, PDGF-BB stimulated; read-out: PAE PDGFR autophos IC50 (nM) AVG. As for the experimental part:
PAE-PDGFRβ Phosphorylation in PAE-PDGFRB Cells Assay
This assay determines the ability of a test compound to inhibit the autophosphorylation of PDGFRβ in porcine aorta endothelial (PAE)-PDGFRβ cells. PAE cells that overexpress human PDGFRβ were used in this assay. The cells were cultured in Ham's F12 media supplemented with 10% fetal bovine serum (FBS) and 400 ug/ml G418. Twenty thousands cells were seeded in each well of a 96-well plate in 50 μL of growth media and allowed to attach for 6 hours at 37° C. Cells were then exposed to the starvation media (Ham's F12 media supplemented with 0.1% FBS) for 16 hours. After the starvation period was over, 10 μL of test agent in 5% DMSO in starvation media were added to the test wells and 10 μL of the vehicle (5% DMSO in starvation media) were added into the control wells. The final DMSO concentration in each well was 0.5%. Plates were incubated at 37° C. for 1 hour and the cells were then stimulated with 1 μg/mL PDGF-BB (R & D System) in the presence of 2 mM Na3VO4 for 8 minutes. The cells were washed once with 1 mm Na3VO4 in HBSS and lysed by adding 50 μL per well of lysis buffer. One hundred μL of dilution buffer were then added to each well and the diluted cell lysate was transferred to a 96-well goat ant-rabbit coated plate (Pierce), which was pre-coated with Rabbit anti Human PDGFRβ antibody (Santa Cruz). The plates were incubated at room temperature for 2 hours and washed seven times with 1% Tween 20 in PBS. HRP-PY20 (Santa Cruz) was diluted and added to the plate for a 30-minute incubation. Plates were then washed again and TMB peroxidase substrate (Kirkegaard & Perry) was added for a 10-minute incubation. One hundred μL of 0.09 N H2SO4 was added into each well of the 96-well plate to stop the reaction. Phosphorylation status was assessed by spectrophotometer reading at 450 nm. IC50 values were calculated by curve fitting using a four-parameter analysis.

T1 sequence (P35968 with tags, fused parts or gaps DEL940-989/E990V limits assumed): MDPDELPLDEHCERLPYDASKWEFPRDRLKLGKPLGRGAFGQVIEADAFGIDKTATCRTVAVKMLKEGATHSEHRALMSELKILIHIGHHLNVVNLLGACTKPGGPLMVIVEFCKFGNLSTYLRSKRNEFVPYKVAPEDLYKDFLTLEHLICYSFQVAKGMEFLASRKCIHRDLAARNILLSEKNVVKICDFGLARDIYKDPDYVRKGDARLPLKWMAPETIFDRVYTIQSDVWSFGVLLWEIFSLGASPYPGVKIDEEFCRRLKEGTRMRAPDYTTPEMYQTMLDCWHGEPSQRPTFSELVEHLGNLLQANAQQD

In the case of `COC[C@@H]1CCCN1C(=O)c1cc2nccc(Oc3ccc4c(C(=O)NCC(C)C)c(C)oc4c3)c2s1` (stereo in doubt) [Example 85, 6[2-(2-Methoxymethyl-pyrrolidine-1-carbonyl)-thieno[3,2-b]pyridin-7-yloxy]-2-methyl-benzofuran-3-carboxylic acid isobutyl amide], the inhibition at 0.05 µM in assay [1] turned out to be 83%. In addition, the Ki in assay [1] was 1.71 nM. The IC50 in the assay with Huvec came to 6990 nM; in assay [2], 3.92 nM; at PDGFRβ, 27.3 nM.
As for `CO[C@@H]1CCN(C(=O)c2cc3nccc(Oc4ccc5c(C(=O)NC6CC6)c(C)sc5c4)c3s2)C1` [Example 11, 6-[(2-{[(3R)-3-methoxypyrrolidin-1-yl]carbonyl}thieno[3,2-b]pyridin-7-yl)oxy]-2-methylbenzo[b]thiophene-3-carboxylic acid cyclopropylamide], the inhibition at 0.05 µM in assay [1] came to 93%. In assay [1], the Ki was found to be 0.492 nM. The IC50 with Huvec was 40 nM; in assay [2], 0.56 nM; on PDGFRβ it was 104 nM.
As to `CCc1oc2cc(Oc3ccnc4cc(C(=O)N5CC[C@@H](OC)C5)sc34)ccc2c1C(=O)NC` [Example 14, 6-(2-[3-methoxypyrrolidine-1-carbonyl]thieno[3,2-b]pyridin-7-yloxy)-2-ethylbenzofuran-3-carboxylic acid methylamide], in assay [1], the inhibition at 0.05 µM worked out at 81% and the affinity, expressed as Ki, was 1.46 nM. The compound also had a half-inhibitory concentration (IC50) in the assay on Huvec of 287 nM. Besides, the IC50 in assay [2] stood at 9.4 nM.
In the same order, the values of `CNC(=O)c1c(C)n(C)c2cc(Oc3ccnc4cc(C(=O)N5CCC[C@H]5CO)sc34)ccc12` [Example 16, 6-[2-(2-Hydroxymethyl-pyrrolidine-1-carbonyl)-thieno[3,2-b]pyridin-7-yloxy]-1,2-dimethyl-1H-indole-3-carboxylic acid methylamide] are 46%, 8.14 nM, 1000 nM and 10 nM.
Regarding `CNC(=O)c1c(C)[nH]c2cc(Oc3ccnc4cc(C(=O)N5CC[C@@H](O)C5)sc34)ccc12` [Example 24, 6-[2-(3-Hydroxy-pyrrolidine-1-carbonyl)-thieno[3,2-b]pyridin-7-yloxy]-2-methyl-1H-indole-3-carboxylic acid methylamide], in assay [1], the inhibition at 0.05 µM is 69% and the Ki came to 4.2 nM. In addition, the IC50 with Huvec was determined as 10000 nM. The concentration for half-maximal inhibition (IC50) in assay [2] worked out at 32 nM.
On to `CNC(=O)c1c(C)n(C)c2cc(Oc3ccnc4cc(C(=O)N5CCC5)sc34)ccc12` [Example 25], for which the inhibition at 0.05 µM in assay [1] turned out to be 70%. In assay [1], this compound had a Ki of 4.08 nM. Besides, the IC50 is 7460 nM in the assay on Huvec, 0.45 nM in assay [2] and 12 nM on PDGFRβ.
As to `CNC(=O)c1c(C)n(C)c2cc(Oc3ccnc4cc(-c5nc(CO)cs5)sc34)ccc12` [Example 26, 1,2-Dimethyl-6-(2-[4-(hydroxymethyl)thiazol-2-yl]thieno[3,2-b]pyridin-7-yloxy)-1H-indole-3-carboxylic acid methylamide], in assay [1], the inhibition at 0.05 µM amounted to 83%. For the same compound, the Ki in assay [1] was 3.66 nM. Besides, the results for the IC50 (with Huvec; in assay [2]; on PDGFRβ) were 2230 nM, 0.74 nM and 13 nM, respectively.
Regarding `CNC(=O)c1c(C)n(C)c2cc(Oc3ccnc4cc(C(=O)N5CCCC5)sc34)ccc12` [Example 28, 1,2-Dimethyl-6-[2-(pyrrolidine-1-carbonyl)-thieno[3,2-b]pyridin-7-yloxy]-1H-indole-3-carboxylic acid methylamide], the inhibition at 0.05 µM in assay [1] turned out to be 78%. For the same compound, the affinity in assay [1] corresponds to a Ki of 2.8 nM. Further, the IC50 stood at 462 nM with Huvec, 0.272 nM in assay [2] and 15 nM at PDGFRβ.
For `Cc1c(C(=O)NCCCO)c2ccc(Oc3ccnc4cc(C(=O)N5CC[C@@H](O)C5)sc34)cc2n1C` [Example 64, 6-[2-((R)-3-Hydroxy-pyrrolidine-1-carbonyl)-thieno[3,2-b]pyridin-7-yloxy]-1,2-dimethyl-1H-indole-3-carboxylic acid (3-hydroxy-propyl)-amide], in assay [1], the inhibition at 0.05 µM is 64% and the Ki stood at 11.8 nM. Moreover, in the assay on Huvec, the IC50 came out at 10000 nM. In addition, the IC50 in assay [2] stood at 10 nM.
Turning to `CO[C@@H]1CCN(C(=O)c2cc3nccc(Oc4ccc5c(C(=O)NC6CC6)c(C)oc5c4)c3s2)C1` [Example 89, 6-[2-(3-Methoxypyrrolidine-1-carbonyl)-thieno[3,2-b]pyridin-7-yloxy]-2-methyl-benzofuran-3-carboxylic acid cyclopropylamide], in assay [1], the inhibition at 0.05 µM was found to be 95% and the Ki is 0.419 nM. Also, the IC50 in the assay on Huvec is 5.2 nM. At PDGFRβ, the IC50 came out at 250 nM.
Consider `Cc1oc2cc(Oc3ccnc4ccsc34)ccc2c1C(=O)Nc1nnc(-c2ccccc2)s1` [Example 106, 2-Methyl-6-(thieno[3,2-b]pyridin-7-yloxy)-benzofuran-3-carboxylic acid (5-phenyl-[1,3,4]thiadiazol-2-yl)-amide], for which, in assay [1], the inhibition at 0.05 µM worked out at 98%. Further, the IC50 in the assay on Huvec came to 638 nM; in assay [2] it was 10 nM.
On to `Cc1sc2cc(Oc3ccnc4cc(-c5nccn5C)sc34)ccc2c1C(=O)NCCCO` [Example 118, 2-Methyl-6-{[2-(1-methyl-1H-imidazol-2-yl)thieno[3,2-b]pyridin-7-yl]oxy}benzo[b]thiophene-3-carboxylic acid 3-hydroxypropylamide], for which, in assay [1], the inhibition at 0.05 µM stood at 84% and the Ki came out at 1.2 nM. In the assay with Huvec, the IC50 worked out at 736 nM. Further, the IC50 in assay [2] amounted to 0.9 nM.
For the compound `COC[C@@H]1CCCN1C(=O)c1cc2nccc(Oc3ccc4c(C(=O)NCC5CC5)c(C)sc4c3)c2s1` [Example 132, 6[(2-{[(2S)-2-(Methoxymethyl)pyrrolidin-1-yl]carbonyl}thieno[3,2-b]pyridin-7-yl)oxy]-2-methylbenzo[b]thiophene-3-carboxyllc acid (cyclopropylmethyl)amide], the inhibition at 0.05 µM in assay [1] is 80%. In assay [1], this compound gave a Ki of 1.78 nM. Besides, the IC50 worked out at 5.8 nM in assay [2] and 467 nM on PDGFRβ.
With `CCc1sc2cc(Oc3ccnc4cc(C(=O)N5CC[C@@H](O)C5)sc34)ccc2c1C(=O)NC` [Example 136, 2-Ethyl-6-[(2-{[(3R)-3-hydroxypyrrolidin-1-yl]carbonyl}thieno[3,2-b]pyridin-7-yl)oxy]benzo[b]thiophene-3-carboxylic acid methylamide], in assay [1], the inhibition at 0.05 µM was determined as 88% and the Ki is 1.17 nM. Also, the concentration for half-maximal inhibition (IC50) in assay [2] turned out to be 10 nM. Also, on PDGFRβ, the half-inhibitory concentration (IC50) worked out at 609 nM.
For `CCc1sc2cc(Oc3ccnc4cc(C(=O)N5CCC5)sc34)ccc2c1C(=O)NC` [Example 138, 6-{[2-(Azetidin-1-ylcarbonyl)thieno[3,2-b]pyridin-7-yl]oxy}-2-ethylbenzo[b]thiophene-3-carboxylic acid methylamide], in assay [1], the inhibition at 0.05 µM was 85%. Moreover, in assay [1], the affinity, expressed as Ki, was 0.78 nM. Moreover, the IC50 was 9.9 nM in assay [2] and 110 nM on PDGFRβ.
